# From patent publication US20220380319A1 (Bial - R&D Investments, S.A., priority 2019, published 2022)
# Tests used:
# [1] = biological target: T1, acid ceramidase (Homo sapiens, UniProt Q13510); test: Acid ceramidase inhibition, biochemical fluorescent assay with cell lysates overexpressing acid ceramidase, substrate Rbm14-12; conditions: substrate Rbm14-12 6.3 μM
# T1 construct: Cell lysates overexpressing acid ceramidase were used as the enzyme source; expressed in transfected cells
# T1 sequence (Q13510 22-395): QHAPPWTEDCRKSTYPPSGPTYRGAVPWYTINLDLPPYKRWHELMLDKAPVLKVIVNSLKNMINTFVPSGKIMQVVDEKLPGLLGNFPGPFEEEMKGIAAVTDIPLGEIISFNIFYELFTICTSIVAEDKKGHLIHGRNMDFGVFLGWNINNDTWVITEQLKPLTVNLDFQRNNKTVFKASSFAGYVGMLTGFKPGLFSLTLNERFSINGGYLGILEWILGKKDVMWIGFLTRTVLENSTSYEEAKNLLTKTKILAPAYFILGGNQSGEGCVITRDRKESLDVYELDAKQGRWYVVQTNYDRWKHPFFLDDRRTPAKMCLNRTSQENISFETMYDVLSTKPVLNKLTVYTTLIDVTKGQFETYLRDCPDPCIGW
# Outline: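 Lysate of cells overexpressing acid ceramidase (10 μg protein) preincubated with compound dose series 1 hr at RT in 25 mM NaAC, 100 mM NaCl, pH 4.5, then reacted 1 hr with 6.3 μM Rbm14-12. Stopped with NaIO4/glycine buffer pH 10.6, fluorescence ex360/em446; IC50 by four-parameter fit.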
# [2] = Compound solubility in water
# [3] = pH 4.5, 1 hr preincubation at RT
Structure (SMILES),IC50 ([1]; pH 4.5),solubility [2],"IC50 [1, 3]"
"CNC1CCN(c2cccc3c2ncn3C(=O)NCCOc2ccccc2)C1 (centres unmarked) [Example 315, 4-(3-(Methylamino)pyrrolidin-1-yl)-N-(2-phenoxyethyl)-1H-benzo[d]imidazole-1-carboxamide]",< 200 nM,30 µg/mL,–
"O=C(NCCOc1ccccc1)n1cnc2c(N3CCN4CCCC4C3)cccc21 (centres unmarked) [Example 316, 4-(Hexahydropyrrolo[1,2-a]pyrazin-2(1H)-yl)-N-(2-phenoxyethyl)-1H-benzo[d]imidazole-1-carboxamide]",< 200 nM,27 µg/mL,–
"CN1CCN(c2cccc3c2ncn3C(=O)NCCOc2ccccc2)CC1CC#N (centres unmarked) [Example 317, 4-(3-(Cyanomethyl)-4-methylpiperazin-1-yl)-N-(2-phenoxyethyl)-1H-benzo[d]imidazole-1-carboxamide]",< 200 nM,26 µg/mL,–
"CN1CCN(C2CN(c3cccc4c3ncn4C(=O)NCCC3CCC(F)(F)C3)C2)CC1 (centres unmarked) [Example 318, N-(2-(3,3-Difluorocyclopentyl)ethyl)-4-(3-(4-methylpiperazin-1-yl)azetidin-1-yl)-1H-benzo[d]imidazole-1-carboxamide]",200 to 1000 nM,40 µg/mL,–
"COc1nc2cc(N3CCN(C4CN(C)C4)CC3)c(F)cc2n1C(=O)NCCCc1ccccc1 [Example 319a, 6-Fluoro-2-methoxy-5-(4-(1-methylazetidin-3-yl)piperazin-1-yl)-N-(3-phenylpropyl)-1H-benzo[d]imidazole-1-carboxamide]",200 to 1000 nM,35 µg/mL,–
"COc1nc2cc(F)c(N3CCN(C4CN(C)C4)CC3)cc2n1C(=O)NCCCc1ccccc1 [Example 319b, 5-fluoro-2-methoxy-6-(4-(1-methylazetidin-3-yl)piperazin-1-yl)-N-(3-phenylpropyl)-1H-benzo[d]imidazole-1-carboxamide]",200 to 1000 nM,46 µg/mL,–
"COc1nc2cc(N3CCN(C4CN(C)C4)CC3)c(F)cc2n1C(=O)NCC#CC(C)C [Example 320a, 6-Fluoro-2-methoxy-5-(4-(1-methylazetidin-3-yl)piperazin-1-yl)-N-(4-methylpent-2-yn-1-yl)-1H-benzo[d]imidazole-1-carboxamide]",> 1000 nM,33 µg/mL,–
"COc1nc2cc(F)c(N3CCN(C4CN(C)C4)CC3)cc2n1C(=O)NCC#CC(C)C [Example 320b, 5-fluoro-2-methoxy-6-(4-(1-methylazetidin-3-yl)piperazin-1-yl)-N-(4-methylpent-2-yn-1-yl)-1H-benzo[d]imidazole-1-carboxamide]",200 to 1000 nM,42 µg/mL,–
"COc1nc2cc(N3CCOCC3)c(F)cc2n1C(=O)NCC#CC(C)C [Example 321a, 6-Fluoro-2-methoxy-N-(4-methylpent-2-yn-1-yl)-5-morpholino-1H-benzo[d]imidazole-1-carboxamide]",200 to 1000 nM,2 µg/mL,–
"COc1nc2cc(F)c(N3CCOCC3)cc2n1C(=O)NCC#CC(C)C [Example 321b, 5-fluoro-2-methoxy-N-(4-methylpent-2-yn-1-yl)-6-morpholino-1H-benzo[d]imidazole-1-carboxamide]",200 to 1000 nM,3 µg/mL,–
"COc1nc2c(N3CCN(C)CC3)cccc2n1C(=O)NCC#Cc1ccccc1 [Example 322, 2-Methoxy-4-(4-methylpiperazin-1-yl)-N-(3-phenylprop-2-yn-1-yl)-1H-benzo[d]imidazole-1-carboxamide]",200 to 1000 nM,22 µg/mL,–
"Cc1ccc(CNC(=O)n2cnc3c(N4CCN(C)CC4)cccc32)cc1 [Example 323, N-(4-Methylbenzyl)-4-(4-methylpiperazin-1-yl)-1H-benzo[d]imidazole-1-carboxamide]",< 200 nM,16 µg/mL,–
"CN1CCN(c2cccc3c2ncn3C(=O)NCCc2ccccc2)CC1 [Example 324, 4-(4-Methylpiperazin-1-yl)-N-phenethyl-1H-benzo[d]imidazole-1-carboxamide]",200 to 1000 nM,11 µg/mL,–
"CN1CC(N2CCN(c3cccc4c3ncn4C(=O)NCCc3ccccc3)CC2)C1 [Example 325, 4-(4-(1-Methylazetidin-3-yl)piperazin-1-yl)-N-phenethyl-1H-benzo[d]imidazole-1-carboxamide]",< 200 nM,32 µg/mL,–
"O=C(NCCc1ccccc1)n1cnc2c(N3CCN(C4COC4)CC3)cccc21 [Example 326, 4-(4-(Oxetan-3-yl)piperazin-1-yl)-N-phenethyl-1H-benzo[d]imidazole-1-carboxamide]",< 200 nM,21 µg/mL,–
"O=C(NCCOc1ccccc1)n1cnc2c(N3CCN(C4COC4)CC3)cccc21 [Example 327, 4-(4-(Oxetan-3-yl)piperazin-1-yl)-N-(2-phenoxyethyl)-1H-benzo[d]imidazole-1-carboxamide]",< 200 nM,25 µg/mL,–

Structure (SMILES),IC50 ([1]; pH 4.5),solubility [2],"IC50 [1, 3]"
"CN1CC(N2CC3CC2CN3c2cccc3c2ncn3C(=O)NCCOc2ccccc2)C1 (centres unmarked) [Example 328, 4-(5-(1-Methylazetidin-3-yl)-2,5-diazabicyclo[2.2.1]heptan-2-yl)-N-(2-phenoxyethyl)-1H-benzo[d]imidazole-1-carboxamide]",< 200 nM,41 µg/mL,–
"COc1nc2c(N3CC(N4CCN(C)CC4)C3)cccc2n1C(=O)NCCOc1ccccc1 [Example 329, 2-Methoxy-4-(3-(4-methylpiperazin-1-yl)azetidin-1-yl)-N-(2-phenoxyethyl)-1H-benzo[d]imidazole-1-carboxamide]",> 1000 nM,38 µg/mL,–
"CN(C)CC1CN(c2cccc3c2ncn3C(=O)NCCOc2ccccc2)C1 [Example 330, 4-(3-((Dimethylamino)methyl)azetidin-1-yl)-N-(2-phenoxyethyl)-1H-benzo[d]imidazole-1-carboxamide]",< 200 nM,38 µg/mL,–
"CN(C)CC1CN(c2cccc3c2ncn3C(=O)NCC#Cc2ccccc2)C1 [Example 331, 4-(3-((Dimethylamino)methyl)azetidin-1-yl)-N-(3-phenylprop-2-yn-1-yl)-1H-benzo[d]imidazole-1-carboxamide]",< 200 nM,22 µg/mL,–
"CN1CCN(C2CN(c3cccc4c3ncn4C(=O)NCC#Cc3ccccc3)C2)CC1 [Example 332, 4-(3-(4-Methylpiperazin-1-yl)azetidin-1-yl)-N-(3-phenylprop-2-yn-1-yl)-1H-benzo[d]imidazole-1-carboxamide]",< 200 nM,24 µg/mL,–
"CN1CC(N2CCN(c3cccc4c3ncn4C(=O)NCC#Cc3ccccc3)CC2)C1 [Example 333, 4-(4-(1-Methylazetidin-3-yl)piperazin-1-yl)-N-(3-phenylprop-2-yn-1-yl)-1H-benzo[d]imidazole-1-carboxamide]",< 200 nM,26 µg/mL,–
"COc1nc2cc(F)c(N3CCOCC3)cc2n1C(=O)NCCc1ccccc1 [Example 334a, 5-Fluoro-2-methoxy-6-morpholino-N-(2-phenethyl)-1H-benzo[d]imidazole-1-carboxamide]",< 200 nM,3 µg/mL,–
"COc1nc2cc(N3CCOCC3)c(F)cc2n1C(=O)NCCc1ccccc1 [Example 334b, 6-fluoro-2-methoxy-5-morpholino-N-(2-phenethyl)-1H-benzo[d]imidazole-1-carboxamide]",< 200 nM,5 µg/mL,–
"COc1nc2cc(F)c(N3CCOCC3)cc2n1C(=O)NCCOc1ccccc1 [Example 335a, 5-Fluoro-2-methoxy-6-morpholino-N-(2-phenoxyethyl)-1H-benzo[d]imidazole-1-carboxamide]",–,1 µg/mL,< 200 nM
"COc1nc2cc(N3CCOCC3)c(F)cc2n1C(=O)NCCOc1ccccc1 [Example 335b, 6-fluoro-2-methoxy-5-morpholino-N-(2-phenoxyethyl)-1H-benzo[d]imidazole-1-carboxamide]",–,7 µg/mL,< 200 nM
"CN1CCN(c2cccc3c2ncn3C(=O)NCC#Cc2ccc(F)cc2)CC1 [Example 336, N-(3-(4-Fluorophenyl)prop-2-yn-1-yl)-4-(4-methylpiperazin-1-yl)-1H-benzo[d]imidazole-1-carboxamide]",–,15 µg/mL,< 200 nM
"CN1CCN(c2cccc3c2ncn3C(=O)NCC#Cc2cccc(F)c2)CC1 [Example 337, N-(3-(3-Fluorophenyl)prop-2-yn-1-yl)-4-(4-methylpiperazin-1-yl)-1H-benzo[d]imidazole-1-carboxamide]",–,15 µg/mL,< 200 nM
"CN1CCN(c2cccc3c2ncn3C(=O)NCC#Cc2ccccc2F)CC1 [Example 338, N-(3-(2-Fluorophenyl)prop-2-yn-1-yl)-4-(4-methylpiperazin-1-yl)-1H-benzo[d]imidazole-1-carboxamide]",–,18 µg/mL,< 200 nM
"COc1ccc(C#CCNC(=O)n2cnc3c(N4CCN(C)CC4)cccc32)cc1 [Example 339, N-(3-(4-Methoxyphenyl)prop-2-yn-1-yl)-4-(4-methylpiperazin-1-yl)-1H-benzo[d]imidazole-1-carboxamide]",–,16 µg/mL,< 200 nM
"COc1cccc(C#CCNC(=O)n2cnc3c(N4CCN(C)CC4)cccc32)c1 [Example 340, N-(3-(3-Methoxyphenyl)prop-2-yn-1-yl)-4-(4-methylpiperazin-1-yl)-1H-benzo[d]imidazole-1-carboxamide]",–,13 µg/mL,< 200 nM
